Measurements published in ChEMBL document CHEMBL1806363, “New substrate analogue furin inhibitors derived from 4-amidinobenzylamide” (Bioorg Med Chem Lett, 2011).

Molecular target: Furin (Homo sapiens, UniProt P09958)
Experiment: Inhibition of recombinant human furin expressed in CHO cells using pyroGlu- Arg-Thr-Lys-Arg-AMC as the substrate after 30 mins
Assay type: cell-based

Sequence of Furin (P09958 whole entry): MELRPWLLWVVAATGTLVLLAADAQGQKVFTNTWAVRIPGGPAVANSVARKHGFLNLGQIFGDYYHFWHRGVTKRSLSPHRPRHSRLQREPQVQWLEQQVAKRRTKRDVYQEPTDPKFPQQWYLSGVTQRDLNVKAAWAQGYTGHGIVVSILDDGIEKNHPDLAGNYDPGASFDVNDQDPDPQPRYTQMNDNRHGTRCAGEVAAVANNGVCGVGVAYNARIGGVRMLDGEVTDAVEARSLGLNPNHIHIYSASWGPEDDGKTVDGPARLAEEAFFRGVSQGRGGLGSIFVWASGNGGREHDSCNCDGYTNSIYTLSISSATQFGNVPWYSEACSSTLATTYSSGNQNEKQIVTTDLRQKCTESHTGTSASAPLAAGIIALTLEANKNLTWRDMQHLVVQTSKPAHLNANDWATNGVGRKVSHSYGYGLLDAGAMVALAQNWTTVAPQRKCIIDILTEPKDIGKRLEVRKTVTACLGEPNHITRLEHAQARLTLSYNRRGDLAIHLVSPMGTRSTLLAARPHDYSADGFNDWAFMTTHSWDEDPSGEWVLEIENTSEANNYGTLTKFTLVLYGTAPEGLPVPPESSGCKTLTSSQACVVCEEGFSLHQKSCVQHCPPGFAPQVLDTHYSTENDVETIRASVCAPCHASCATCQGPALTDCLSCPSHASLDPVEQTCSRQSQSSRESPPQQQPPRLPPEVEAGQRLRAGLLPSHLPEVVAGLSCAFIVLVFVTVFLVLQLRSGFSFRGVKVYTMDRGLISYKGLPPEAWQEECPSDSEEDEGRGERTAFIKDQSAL

Ki [nM] | SMILES
7340 | CC(C)[C@H](NC(=O)Cc1ccccc1)C(=O)N[C@H](CCCN=C(N)N)C(=O)N[C@@H](CCCN=C(N)N)C(=O)NCc1ccc(C(=N)N)cc1
3200 | NC(N)=NCCC[C@H](NC(=O)[C@@H](CCCN=C(N)N)NC(=O)Cc1ccccc1)C(=O)O
1.5 | CC(C)[C@H](NC(=O)[C@H](CCCN=C(N)N)NC(=O)Cc1ccccc1)C(=O)N[C@@H](CCCCN)C(=O)NCc1ccc(C(=N)N)cc1
3.7 | N=C(N)c1ccc(CNC(=O)[C@H](CCCCN)NC(=O)[C@H](CN)NC(=O)[C@H](CCCN=C(N)N)NC(=O)Cc2ccccc2)cc1
